Test results published in ChEMBL document CHEMBL1275354, “Anticonvulsant activity of 2,4(1H)-diarylimidazoles in mice and rats acute seizure models” (Bioorg Med Chem, 2010).
Calls of active or inactive are those of the source. The calls are words filed in the database; no cut-off is given here.

What was measured:
[1] = tested on: Mus musculus; experiment: Neurotoxicity in ip dosed albino CF1 mouse assessed as minimum dose required to cause toxicity after 0.5 hrs by rotarod test; assay type: organism-based; settings: in vivo
[2] = tested on: Mus musculus; experiment: Neurotoxicity in albino CF1 mouse assessed as minimal motor impairment at 30 mg/kg, ip after 0.5 hrs by rotarod test; assay type: toxicity, organism-based; parameters: dose 30 mg/kg, route intraperitoneal; settings: in vivo
[3] = tested on: Mus musculus; experiment: Anticonvulsant activity in albino CF1 mouse assessed as protection against maximal electroshock-induced seizures at 100 mg/kg, ip after 0.5 hrs; assay type: functional, organism-based; parameters: dose 100 mg/kg
[4] = tested on: Mus musculus; experiment: Anticonvulsant activity against subcutaneous metrazole-induced seizures in ip dosed albino CF1 mouse assessed as minimum effective dose after 4 hrs; assay type: functional; settings: albino CF1, 4 h, read-out: MED
[5] = tested on: Mus musculus; experiment: Neurotoxicity in albino CF1 mouse assessed as minimal motor impairment at 80 mg/kg, ip after 0.25 hrs by rotarod test; assay type: toxicity, organism-based; parameters: dose 80 mg/kg, route intraperitoneal; settings: in vivo
[6] = tested on: Mus musculus; experiment: Neurotoxicity in albino CF1 mouse assessed as minimal motor impairment at 200 mg/kg, ip after 0.25 hrs by rotarod test; assay type: toxicity, organism-based; parameters: dose 200 mg/kg, route intraperitoneal; settings: in vivo
[7] = tested on: Mus musculus; experiment: Anticonvulsant activity ip dosed albino CF1 mouse assessed as protection against subcutaneous metrazole-induced seizures after 0.25 hrs; assay type: functional; settings: albino CF1, 0.25 h
[8] = tested on: Mus musculus; experiment: Neurotoxicity in ip dosed albino CF1 mouse assessed as minimal motor impairment after 0.25 hrs by rotarod test; assay type: toxicity, organism-based; settings: in vivo
[9] = tested on: Rattus norvegicus; experiment: Neurotoxicity in albino Sprague-Dawley rat assessed as minimal motor impairment at 30 mg/kg, po by rotarod test; assay type: toxicity, organism-based; parameters: dose 30 mg/kg, route oral; settings: in vivo
[10] = tested on: Mus musculus; experiment: Anticonvulsant activity ip dosed albino CF1 mouse assessed as protection against maximal electroshock-induced seizures after 0.25 hrs; assay type: functional
[11] = tested on: Rattus norvegicus; experiment: Anticonvulsant activity in albino Sprague-Dawley rat assessed as protection against maximal electroshock-induced seizures at 30 mg/kg, po after 0.25 hrs; assay type: functional, organism-based; parameters: dose 30 mg/kg
[12] = tested on: Rattus norvegicus; experiment: Anticonvulsant activity in albino Sprague-Dawley rat assessed as protection against maximal electroshock-induced seizures at 30 mg/kg, po after 0.5 hrs; assay type: functional, organism-based; parameters: dose 30 mg/kg
[13] = tested on: Rattus norvegicus; experiment: Anticonvulsant activity in albino Sprague-Dawley rat assessed as protection against maximal electroshock-induced seizures at 30 mg/kg, po after 1 hr; assay type: functional, organism-based; parameters: dose 30 mg/kg
[14] = tested on: Rattus norvegicus; experiment: Anticonvulsant activity in albino Sprague-Dawley rat assessed as protection against maximal electroshock-induced seizures at 30 mg/kg, po after 2 hrs; assay type: functional, organism-based; parameters: dose 30 mg/kg
[15] = tested on: Rattus norvegicus; experiment: Anticonvulsant activity in albino Sprague-Dawley rat assessed as protection against maximal electroshock-induced seizures at 30 mg/kg, po after 4 hrs; assay type: functional, organism-based; parameters: dose 30 mg/kg
[16] = tested on: Mus musculus; experiment: Neurotoxicity in albino CF1 mouse assessed as minimal motor impairment at 30 mg/kg, ip after 4 hrs by rotarod test; assay type: toxicity, organism-based; parameters: dose 30 mg/kg, route intraperitoneal; settings: in vivo
[17] = tested on: Mus musculus; experiment: Neurotoxicity in albino CF1 mouse assessed as minimal motor impairment at 100 mg/kg, ip after 4 hrs by rotarod test; assay type: toxicity, organism-based; parameters: dose 100 mg/kg, route intraperitoneal; settings: in vivo
[18] = tested on: Mus musculus; experiment: Neurotoxicity in albino CF1 mouse assessed as minimal motor impairment at 300 mg/kg, ip after 0.5 hrs by rotarod test; assay type: toxicity, organism-based; parameters: dose 300 mg/kg, route intraperitoneal; settings: in vivo
[19] = tested on: Mus musculus; experiment: Anticonvulsant activity in albino CF1 mouse assessed as protection against maximal electroshock-induced seizures at 100 mg/kg, ip after 4 hrs; assay type: functional, organism-based; parameters: dose 100 mg/kg
[20] = tested on: Mus musculus; experiment: Anticonvulsant activity in albino CF1 mouse assessed as protection against maximal electroshock-induced seizures at 300 mg/kg, ip after 0.5 hrs; assay type: functional, organism-based; parameters: dose 300 mg/kg
[21] = tested on: Mus musculus; experiment: Anticonvulsant activity in albino CF1 mouse assessed as protection against maximal electroshock-induced seizures at 300 mg/kg, ip after 4 hrs; assay type: functional, organism-based; parameters: dose 300 mg/kg
[22] = tested on: Mus musculus; experiment: Anticonvulsant activity in albino CF1 mouse assessed as protection against subcutaneous metrazole-induced seizures at 30 mg/kg, ip after 0.5 hrs; assay type: functional, organism-based; parameters: dose 30 mg/kg
[23] = tested on: Mus musculus; experiment: Anticonvulsant activity in albino CF1 mouse assessed as protection against subcutaneous metrazole-induced seizures at 30 mg/kg, ip after 4 hrs; assay type: functional, organism-based; parameters: dose 30 mg/kg
[24] = tested on: Mus musculus; experiment: Anticonvulsant activity in albino CF1 mouse assessed as protection against subcutaneous metrazole-induced seizures at 100 mg/kg, ip after 0.5 hrs; assay type: functional, organism-based; parameters: dose 100 mg/kg
[25] = tested on: Mus musculus; experiment: Anticonvulsant activity in albino CF1 mouse assessed as protection against subcutaneous metrazole-induced seizures at 100 mg/kg, ip after 4 hrs; assay type: functional, organism-based; parameters: dose 100 mg/kg
[26] = tested on: Mus musculus; experiment: Anticonvulsant activity in albino CF1 mouse assessed as protection against subcutaneous metrazole-induced seizures at 300 mg/kg, ip after 0.5 hrs; assay type: functional, organism-based; parameters: dose 300 mg/kg
[27] = tested on: Mus musculus; experiment: Anticonvulsant activity in albino CF1 mouse assessed as protection against subcutaneous metrazole-induced seizures at 300 mg/kg, ip after 4 hrs; assay type: functional, organism-based; parameters: dose 300 mg/kg
[28] = tested on: Mus musculus; experiment: Anticonvulsant activity in albino CF1 mouse assessed as protection against maximal electroshock-induced seizures at 30 mg/kg, ip after 0.5 hrs; assay type: functional, organism-based; parameters: dose 30 mg/kg
[29] = tested on: Mus musculus; experiment: Anticonvulsant activity in albino CF1 mouse assessed as protection against maximal electroshock-induced seizures at 30 mg/kg, ip after 4 hrs; assay type: functional, organism-based; parameters: dose 30 mg/kg
[30] = tested on: Mus musculus; experiment: Neurotoxicity in ip dosed albino CF1 mouse assessed as minimum dose required to cause toxicity after 4 hrs by rotarod test; assay type: organism-based; settings: in vivo
[31] = tested on: Mus musculus; experiment: Anticonvulsant activity against maximal electroshock-induced seizures in ip dosed albino CF1 mouse assessed as minimum effective dose after 0.5 hrs; assay type: functional; settings: read-out: MED
[32] = tested on: Mus musculus; experiment: Anticonvulsant activity against maximal electroshock-induced seizures in ip dosed albino CF1 mouse assessed as minimum effective dose after 4 hrs; assay type: functional; settings: read-out: MED
[33] = tested on: Mus musculus; experiment: Anticonvulsant activity against subcutaneous metrazole-induced seizures in ip dosed albino CF1 mouse assessed as minimum effective dose after 0.5 hrs; assay type: functional; settings: albino CF1, 0.5 h, read-out: MED
[34] = tested on: Mus musculus; experiment: Neurotoxicity in albino CF1 mouse assessed as minimal motor impairment at 30 to 300 mg/kg, ip after 0.5 hrs by rotarod test; settings: in vivo

SMILES: c1ccc(-c2c[nH]c(-c3ccccc3)n2)cc1
- MED [1]: 100 mg/kg
- Activity [2]: Non-toxic
- Activity [3]: Active
- minimal effective dose [4]: > 300 mg/kg
- Activity [5]: Non-toxic
- Activity [6]: Non-toxic
- ED50 [7]: 161 mg/kg
- TD50 [8]: 126.8 mg/kg
- Activity [9]: Non-toxic
- ED50 [10]: 61.7 mg/kg
- Activity [11]: inactive
- Activity [12]: inactive
- Activity [13]: inactive
- Activity [14]: inactive
- Activity [15]: inactive
- Activity [16]: Non-toxic
- Activity [17]: Non-toxic
- Activity [18]: Toxic
- Activity [19]: inactive
- Activity [20]: Active
- Activity [21]: Active
- Activity [22]: inactive
- Activity [23]: inactive
- Activity [24]: inactive
- Activity [25]: inactive
- Activity [26]: inactive
- Activity [27]: inactive
- Activity [28]: Active
- Activity [29]: inactive
- MED [30]: 100 mg/kg
- minimal effective dose [31]: > 30 mg/kg
- minimal effective dose [32]: 100 mg/kg
- minimal effective dose [33]: > 300 mg/kg
- Activity [34]: Non-toxic
